Measured values published in ChEMBL document CHEMBL1129080, “Synthesis, physicochemical properties, and biological evaluation of hydroxypyranones and hydroxypyridinones: novel bidentate ligands for cell-labeling” (J Med Chem, 1996).

Test: Compound was tested for their chelating potential (free ligand) determined by distribution coefficient method.
Assay type: ADME
Conditions: octanol/water

| mean log D | SMILES |
| --- | --- |
| 1.9 | CCCCCCn1ccc(=O)c(O)c1C |
| 1.24 | CCCCCn1ccc(=O)c(O)c1C |

Same assay, conditions: octanol/water; read-out: mean log D

| logD | SMILES |
| --- | --- |
| 0.2 | CCn1cccc(O)c1=O |
| -0.59 | Cc1cc(=O)c(O)co1 |
| 0.63 | CCc1occc(=O)c1O [E637] |
| -0.92 | O=c1ccocc1O |
| 0.3 | CCCOCc1cc(=O)c(O)co1 |
| 1.92 | CCCCc1oc(C)cc(=O)c1O |
| -0.66 | NCCn1ccc(=O)c(O)c1 |
| 1.4 | CCCc1oc(C)cc(=O)c1O |
| -0.28 | Cn1cccc(O)c1=O |
| 0.44 | Cc1cc(=O)c(O)c(C)o1 |
| 1.07 | CCc1oc(C)cc(=O)c1O |
| 0.69 | CCCn1cccc(O)c1=O |
| 0.05 | Cc1occc(=O)c1O [MALTOL] |
| 0.78 | CCCCOCc1cc(=O)c(O)co1 |
| 1.18 | CCCCn1cccc(O)c1=O |
| 0.71 | CCCCn1ccc(=O)c(O)c1C |
| -0.38 | CCOCc1cc(=O)c(O)co1 |
| -0.62 | COCc1cc(=O)c(O)co1 |

| SMILES | logD |
| --- | --- |
| Oc1cccc2cccnc12 [OXYQUINOLINE] | 1.87 |
| O=c1cccccc1O [TROPOLONE] | -0.14 |
